From ChEMBL document CHEMBL1155979, “Synthesis of gibberellin derivatives with anti-tumor bioactivities” (Bioorg Med Chem Lett, 2009)
pIC50: −log10 of the molar value. In brackets after ≈: the same amount, converted by molar mass. Activity calls are given as the source filed them. The calls are words filed in the database; no cut-off is given here.

Legend:
[1] = Cytotoxicity against human BIU87 cells by MTT assay; format: functional, cell-based
HL-60 = experiment: Cytotoxicity against human HL60 cells by MTT assay; format: functional, cell-based
HepG2 = experiment: Cytotoxicity against human HepG2 cells by MTT assay; format: functional, cell-based
A549 = experiment: Cytotoxicity against human A549 cells by MTT assay; format: functional, cell-based
HT-29 = experiment: Cytotoxicity against human HT-29 cells by MTT assay; format: functional, cell-based
MKN-28 = experiment: Cytotoxicity against human MKN28 cells by MTT assay; format: functional, cell-based
[2] = target: T1, DNA topoisomerase 1 (Homo sapiens) (UniProt P11387); experiment: Inhibition of topoisomerase I relaxation activity assessed as supercoiled pBR322 DNA
T1 sequence (whole entry): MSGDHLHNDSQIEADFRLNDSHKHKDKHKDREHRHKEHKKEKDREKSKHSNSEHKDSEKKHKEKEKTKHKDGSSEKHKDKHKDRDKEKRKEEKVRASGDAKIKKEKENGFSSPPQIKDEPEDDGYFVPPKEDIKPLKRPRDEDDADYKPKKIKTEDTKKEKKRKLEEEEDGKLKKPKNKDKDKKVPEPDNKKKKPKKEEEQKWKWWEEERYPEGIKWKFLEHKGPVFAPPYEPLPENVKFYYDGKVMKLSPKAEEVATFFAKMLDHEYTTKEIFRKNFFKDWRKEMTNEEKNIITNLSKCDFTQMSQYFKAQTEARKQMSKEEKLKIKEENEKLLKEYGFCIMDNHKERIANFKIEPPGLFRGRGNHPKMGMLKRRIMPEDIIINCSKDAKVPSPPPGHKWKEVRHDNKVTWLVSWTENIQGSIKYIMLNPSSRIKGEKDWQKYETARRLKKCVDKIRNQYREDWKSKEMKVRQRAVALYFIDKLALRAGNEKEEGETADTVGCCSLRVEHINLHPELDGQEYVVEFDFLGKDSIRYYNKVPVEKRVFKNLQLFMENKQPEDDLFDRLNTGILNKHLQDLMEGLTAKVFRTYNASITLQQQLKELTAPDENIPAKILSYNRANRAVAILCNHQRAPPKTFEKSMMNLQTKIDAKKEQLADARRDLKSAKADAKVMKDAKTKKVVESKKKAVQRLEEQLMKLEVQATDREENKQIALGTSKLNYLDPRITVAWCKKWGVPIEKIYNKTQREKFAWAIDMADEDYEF

[3] = target: T1, DNA topoisomerase 1 (Homo sapiens); experiment: Inhibition of topoisomerase I relaxation activity assessed as supercoiled pBR322 DNA at 8 ug/ml

Row | Structure (SMILES) | IC50 [1] | IC50 (HL-60) | pIC50 (HepG2) | pIC50 (A549) | pIC50 (HT-29) | pIC50 (MKN-28) | inhibition [2] | inhibition [3]
1 | C=C1C[C@]23C[C@@]1(OC(C)=O)CC[C@H]2[C@@]12C=C[C@H](OC(C)=O)[C@](C)(C(=O)O1)[C@H]2[C@@H]3C(=O)OCc1ccccc1 | > 100 µg/mL | > 100 µg/mL |  |  |  |  |  | 
2 | C=C1C(=O)[C@]23C[C@@]1(O)CC[C@H]2[C@@]12C=CC(=O)[C@](C)(C(=O)O1)[C@H]2[C@@H]3C(=O)OC |  |  | 4.43 | 4.04 | 4.18 | 4.40 |  | 
3 | C=C1C(=O)[C@]23C[C@@]1(OC)CC[C@H]2[C@@]12C=CC(=O)[C@](C)(C(=O)O1)[C@H]2[C@@H]3C(=O)OC |  |  | 4.36 | 4.26 | 4.10 | 5.47 |  | 
4 | C=C1[C@H](O)[C@]23C[C@@]1(O)CC[C@H]2[C@@]12C=C[C@H](O)[C@](C)(C(=O)O1)[C@H]2[C@@H]3C(=O)OCc1ccccc1 | > 100 µg/mL | > 100 µg/mL |  |  |  |  |  | 
5 | C=C1C(=O)[C@]23C[C@@]1(O)CC[C@H]2[C@@]12C=CC(=O)[C@](C)(C(=O)O1)[C@H]2[C@@H]3C(=O)OCc1ccccc1 |  |  | 4.69 | 4.62 | 4.08 | 5.60 |  | 
6 | CC[C@]1(O)C[C@H]2CN(CCc3c([nH]c4ccccc34)[C@@](C(=O)OC)(c3cc4c(cc3OC)N(C=O)[C@H]3[C@@](O)(C(=O)OC)[C@H](OC(C)=O)[C@]5(CC)C=CCN6CC[C@]43[C@@H]65)C2)C1 [VINCRISTINE] |  |  | 5.43 | 5.60 | 5.28 | 5.15 |  | 
7 | C=C1C(=O)[C@]23C[C@@]1(Cl)CC[C@H]2[C@@]12C=CC(=O)[C@](C)(C(=O)O1)[C@H]2[C@@H]3C(=O)OC | 1 µg/mL (≈ 2.56 µM) | 6.5 µg/mL (≈ 16.6 µM) | 4.40 | 4.22 | 5.54 | 5.32 | Dose-dependent effect | Active
8 | C=C1C[C@]23C[C@@]1(O)CC[C@H]2[C@@]12C=CC(=O)[C@](C)(C(=O)O1)[C@H]2[C@@H]3C(=O)OCc1ccccc1 | > 40 µg/mL | > 40 µg/mL |  |  |  |  |  | 
9 | C=C1C(=O)[C@]23C[C@@]1(Cl)CC[C@H]2[C@@]12C=CC(=O)[C@](C)(C(=O)O1)[C@H]2[C@@H]3C(=O)OCc1ccccc1 | 0.5 µg/mL (≈ 1.07 µM) | 2.7 µg/mL (≈ 5.78 µM) | 4.75 | 4.54 | 5.35 | 5.17 |  | 
10 | C=C1[C@H](O)[C@]23C[C@@]1(OC(C)=O)CC[C@H]2[C@@]12C=C[C@H](OC(C)=O)[C@](C)(C(=O)O1)[C@H]2[C@@H]3C(=O)OCc1ccccc1 | > 100 µg/mL | > 100 µg/mL |  |  |  |  |  | 
11 | C=C1C[C@]23C[C@@]1(O)CC[C@H]2[C@@]12C=C[C@H](O)[C@](C)(C(=O)O1)[C@H]2[C@@H]3C(=O)OC | > 100 µg/mL | > 100 µg/mL |  |  |  |  |  | 
12 | C=C1C(=O)[C@]23C[C@@]1(OCC)CC[C@H]2[C@@]12C=CC(=O)[C@](C)(C(=O)O1)[C@H]2[C@@H]3C(=O)OCc1ccccc1 |  |  | 4.53 | 4.62 | 4.63 | 4.78 |  | 
13 | C=C1C(=O)[C@]23C[C@@]1(I)CC[C@H]2[C@@]12C=CC(=O)[C@](C)(C(=O)O1)[C@H]2[C@@H]3C(=O)OCc1ccccc1 |  |  | 4.16 | 4.34 | 4.30 | 5.52 |  | 
14 | C=C1C[C@]23C[C@@]1(O)CC[C@H]2[C@@]12C=C[C@H](O)[C@](C)(C(=O)O1)[C@H]2[C@@H]3C(=O)O [GIBBERELLIN GA3] | > 100 µg/mL | > 100 µg/mL |  |  |  |  |  | 
15 | C=C1C(=O)[C@]23C[C@@]1(OC(C)=O)CC[C@H]2[C@@]12C=C[C@H](OC(C)=O)[C@](C)(C(=O)O1)[C@H]2[C@@H]3C(=O)OCc1ccccc1 | > 40 µg/mL | > 40 µg/mL |  |  |  |  |  | 
16 | C=C1[C@H](O)[C@]23C[C@@]1(O)CC[C@H]2[C@@]12C=C[C@H](O)[C@](C)(C(=O)O1)[C@H]2[C@@H]3C(=O)OC | > 100 µg/mL | > 100 µg/mL |  |  |  |  |  | 
17 | C=C1C(=O)[C@]23C[C@@]1(I)CC[C@H]2[C@@]12C=CC(=O)[C@](C)(C(=O)O1)[C@H]2[C@@H]3C(=O)OC |  |  | 4.06 | 4.27 | 4.28 | 5.17 |  | 
18 | C=C1C(=O)[C@]23C[C@@]1(OCC)CC[C@H]2[C@@]12C=CC(=O)[C@](C)(C(=O)O1)[C@H]2[C@@H]3C(=O)OC |  |  | 3.92 | 4.74 | 4.47 | 4.08 |  | 
19 | C=C1C(=O)[C@]23C[C@@]1(F)CC[C@H]2[C@@]12C=CC(=O)[C@](C)(C(=O)O1)[C@H]2[C@@H]3C(=O)OCc1ccccc1 |  |  | 4.36 | 4.19 | 4.23 | 5.01 |  | 
20 | C=C1C[C@]23C[C@@]1(O)CC[C@H]2[C@@]12C=C[C@H](O)[C@](C)(C(=O)O1)[C@H]2[C@@H]3C(=O)OCc1ccccc1 | > 100 µg/mL | > 100 µg/mL |  |  |  |  |  | 
21 | C=C1C(=O)[C@]23C[C@@]1(OC)CC[C@H]2[C@@]12C=CC(=O)[C@](C)(C(=O)O1)[C@H]2[C@@H]3C(=O)OCc1ccccc1 |  |  | 4.46 | 4.55 | 4.32 | 6.10 |  | 
22 | C=C1C(=O)[C@]23C[C@@]1(F)CC[C@H]2[C@@]12C=CC(=O)[C@](C)(C(=O)O1)[C@H]2[C@@H]3C(=O)OC |  |  | 4.39 | 4.41 | 4.14 | 5.39 |  | 
